Results reported in patent US7943175B2, “Calixarene based dispersible colloidal systems in the form of nanoparticles” (Nanoport S.A., priority 2001, dated 2011).

Tested on: embryo insect cells (trichiopusia ni)
Experiment: Toxicity test on embryo insect cells
Type: cell-based
From the text: Second, p-dodecanoyl-calix[4]arene has been tested on embryo insect cells (trichiopusia ni). Viability values of more than 80% have been found.

## CCCCCCCCCCCC(=O)c1cc2c(O)c(c1)Cc1cc(C(=O)CCCCCCCCCCC)cc(c1O)Cc1cc(C(=O)CCCCCCCCCCC)cc(c1O)Cc1cc(C(=O)CCCCCCCCCCC)cc(c1O)C2 [p-dodecanoyl-calix[4]arene]
  Viability: more than 80%
